Data from paper PMC8478281, “Targeting the FtsZ Allosteric Binding Site with a Novel Fluorescence Polarization Screen, Cytological and Structural Approaches for Antibacterial Discovery” (Journal of Medicinal Chemistry, 2021).
Values after ≈ are worked out from the molar mass of the structure shown. Like-named read-outs stand apart in the source and are kept apart here.

Columns and labels:
[1] = target: T1, BsFtsZ (Bacillus subtilis, UniProt P17865); experiment: Fluorescence anisotropy of probes after consecutive additions of FtsZ, GMPCPP, MgCl2 and PC190723; type: binding; settings: for Fluorescence anisotropy (r): free probe: probe 10 μM in buffer; for Fluorescence anisotropy (r): + FtsZ (unassbld.) / Fluorescence anisotropy (r): + GMPCPP / Fluorescence anisotropy (r): + MgCl2 (polymer): probe 10 μM, FtsZ 10 μM; for Fluorescence anisotropy (r): + GMPCPP / Fluorescence anisotropy (r): + MgCl2 (polymer): GMPCPP 0.1 mM; for Fluorescence anisotropy (r): + MgCl2 (polymer): MgCl2 10 mM, 5–10 min
T1 construct: made in house
T1 sequence (P17865 whole entry): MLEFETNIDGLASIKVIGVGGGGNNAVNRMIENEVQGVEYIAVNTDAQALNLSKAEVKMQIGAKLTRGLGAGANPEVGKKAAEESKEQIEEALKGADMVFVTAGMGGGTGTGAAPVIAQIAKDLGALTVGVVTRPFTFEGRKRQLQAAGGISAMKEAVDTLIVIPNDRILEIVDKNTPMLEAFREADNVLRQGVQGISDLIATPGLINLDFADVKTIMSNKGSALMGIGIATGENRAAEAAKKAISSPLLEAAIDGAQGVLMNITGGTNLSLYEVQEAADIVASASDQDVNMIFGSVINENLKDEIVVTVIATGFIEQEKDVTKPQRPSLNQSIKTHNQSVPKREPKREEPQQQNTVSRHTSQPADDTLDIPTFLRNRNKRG
Method: (A) Fluorescence anisotropy values of the free probes (10 μM) in buffer, to which FtsZ (10 μM, unassembled) was added, followed by the slowly hydrolyzable GTP analogue GMPCPP (0.1 mM). BsFtsZ polymerization was then induced by the addition of MgCl2 (10 mM) and anisotropy values were recorded 5–10 min later. Nonfluorescent PC190723 (10 μM) was subsequently added to displace the fluorescent probe and anisotropy was measured 5 min later. (B) Fluorescence microscopy images of B. subtilis cells treated for 1.5 h with the minimal division inhibitory concentrations (MDC) of (S)-2 and each enantiomer of 5 (Table S1), acquired employing the probe fluorescence.
(§1) FtsZ from B. subtilis (BsFtsZ) was prepared as described previously.[35] FtsZ was assembled in 50 mM N-(2-hydroxyethyl)piperazine-N′-ethanesulfonic acid (HEPES)-KOH, 50 mM KCl, 1 mM ethylenediaminetetraacetic acid (EDTA), pH 6.8 (HEPES buffer) plus 10 mM MgCl2, and 1 mM GTP or 0.1 mM GMPCPP at 25 °C. FtsZ assembly was monitored by light scattering.[34]

[2] = tested on: B. subtilis; experiment: Minimal growth inhibitory concentration (broth macrodilution), B. subtilis; type: cell-based, Bacillus subtilis; settings: for MIC B. subtilis: Table S1, fluorescent probes; for MIC: Bacillus subtilis
Method: (§2) B. subtilis 168 and Staphylococcus spp. were grown in cation adjusted Mueller–Hinton broth (CAMHB; Becton, Dickinson and Company) at 37 °C. B. subtilis SU570 were grown in the same medium at 30 °C. In all cases, the cells were grown to an absorbance of 0.1–0.2 at 600 nm and then incubated either with the compounds or DMSO vehicle. Microscopy assays and cell measurement were performed as previously described.[31] MIC values were determined by a broth macrodilution method.[51] MBC values were determined as the lowest concentration of inhibitor at which there was a 99.9% reduction in colony-forming units/mL compared to the inoculum. To construct a S. aureus strain expressing FtsZ-mCherry, the plasmid pCN-ftsZmch[9] was electroporated into RN4220 and 0.1 μM cadmium chloride (Sigma-Aldrich) was used to induce the expression of the construct under the control of the Pcad promoter.

[3] = target: T2, FtsZ-GMPCPP polymers (BsFtsZ) (Bacillus subtilis, UniProt P17865); experiment: Binding titration of the fluorescent probes to FtsZ polymers by fluorescence anisotropy; settings: for Imax/Imin / rmax (all probe bound) / rmin (free probe) / Kd: FtsZ-GMPCPP polymers, best fit values from binding titrations
T2 construct: made in house
T2 sequence (P17865 whole entry): as above
Method: as §1
The fluorescence spectra and anisotropy values of the different probes were acquired with a Fluoromax-4 (Horiba Jobin Yvon) photon-counting L-format spectrofluorometer using 2 mm × 10 mm cells at 25 °C, employing the maximum excitation and emission wavelength for each probe with 2 and 5 nm bandwidths, respectively. Anisotropy values were automatically measured as r = (Ivv – G Ivh)/(Ivv + 2G Ivh), where the subscripts refer to the vertical (v) or horizontal (h) positions of the excitation (first subscript) and emission (second subscript) polarizers, and G = Ihv/Ihh. Total intensity values were simultaneously determined as IT = Ivv +2G Ivh. Note that measurement correction procedures with T-format (double channel) fluorometers and with plate readers are slightly different.
(§3) FtsZ (10–15 μM) was assembled in HEPES buffer, 10 mM MgCl2, 50 μM GMPCPP at 25 °C for 10 min, and then 0.15% (v/v) glutaraldehyde[36] (distilled grade for microscopy, TAAB Laboratories, U.K.) was added to the solution that was incubated at 25 °C for 10 min more. (This was the minimal glutaraldehyde concentration determined to stabilize FtsZ polymers specifically binding probe 1.) The remains of the cross-linking agent were quenched by adding 60 mM NaBH4, the sample was incubated on ice for 10 min and degassed.[36] Cross-linked polymers were centrifuged for 10 min at 8200g (5000 rpm) and 4 °C in 15 mL Falcon tubes employing a Rotina 380R (Hettich) centrifuge, the supernatant was removed and the pellet was resuspended in the same volume of HEPES buffer, 10 mM MgCl2, containing 5 μM GMPCPP. Fixed FtsZ polymers were active in binding assays after more than 2 days at 4 °C; they could also be frozen in liquid nitrogen with a small loss of binding capacity. […] Cross-linked polymers of SaFtsZ were similarly prepared.
Binding affinity of the probes to FtsZ was measured by an increase in anisotropy of the probe (adapted from ref ([49])). Fixed concentrations of the probes (3 μM) were titrated with different FtsZ polymer concentrations (0–40 μM) in HEPES buffer with Mg^2+, to obtain the anisotropy increment, Δrmax, corresponding to the bound probe. The increase in anisotropy was plotted against the FtsZ polymer concentration (calculated by subtracting from the total protein concentration the critical concentration for polymerization under the same conditions) and iteratively least-squares fitted with an isotherm of binding to one site. The estimated values of Δrmax were used to approximate the free FtsZ concentrations, and these new values were employed again until an unchanging Δrmax value was obtained. The convergent data were used to calculate the binding constant of the fluorescent probe to FtsZ polymers (Table S1).

[4] = tested on: S. aureus Mu50; experiment: Minimal growth inhibitory concentration (broth macrodilution), S. aureus Mu50; type: cell-based, Staphylococcus aureus; settings: for MIC S. aureus Mu50: Table S1, fluorescent probes; for MIC: Staphylococcus aureus, MU50, read-out: MIC S. aureus Mu50
Method: as §2

[5] = target: T3, stabilized polymers of FtsZ from B. subtilis (Bacillus subtilis, UniProt P17865); experiment: Competition assay: displacement of probe (R)-5 from stabilized BsFtsZ-GMPCPP polymers; type: binding; settings: for Kd: stabilized polymers of FtsZ from B. subtilis, probe (R)-5, mean ± SEM, read-out: KD
T3 construct: made in house
T3 sequence (P17865 whole entry): as above
Method: as §3
Competition assays were performed by measuring, through the decrease in fluorescence anisotropy, the displacement of the fluorescent probes from stabilized FtsZ polymers. Increasing concentrations of competing ligands were added to the mixtures of cross-linked FtsZ polymers (10–15 μM) with probe 1 (3 μM), 7–8 μM FtsZ polymers with probe (S)-2 (3 μM), or 2–3 μM FtsZ polymers with (R)-5 (3 μM). HEPES buffer with 10 mM MgCl2 and 0.1 mM GMPCPP was employed, with a final volume of 0.5 mL, and the anisotropy measured at 25 °C. Under these conditions, the initial fraction of the probe bound was between 0.4 and 0.5. The fraction of the probe bound (Vb) was calculated [drawing 1] where rfree and rmax are the anisotropy values of the free and bound probes, respectively, and R is the ratio between the fluorescence intensities of the bound and free probe (Table S1). The binding data were plotted against the competing ligand concentration and fitted by competition equilibrium of the ligand and the probe for the same binding site. The resulting system of equations[50] was numerically solved using the Equigra v. 5.0 program,[33] which provided the best-fitted value of the competitor binding constant.

[6] = tested on: B. subtilis; experiment: Minimal division inhibitory concentration and cell division phenotype, B. subtilis; type: cell-based, Bacillus subtilis; settings: for minimal effective concentration: Bacillus subtilis, read-out: MDC B. subtilis; for toxicity to the bacterial cells, in words: B. subtilis cell division tests
Method: as §2

[7] = Solubility in HEPES buffer with 2% DMSO, spectrophotometric; type: physicochemical; settings: HEPES buffer containing 2% DMSO, 25 °C, aqueous buffer, kinetic from dmso stock; HEPES buffer pH 6.8 containing 2% DMSO
Method: 3.2. Solubility of Compounds. Stock solutions of compounds were prepared in
DMSO (spectroscopic grade, Merck) a nd stored at -20 °C. Compound solubility in 50
mM HEPES-KOH, 50 mM KCl, 1 mM EDTA, pH 6.8 (HEPES buffer) containing 2%
DMSO was determined spectrophotometrically, monitoring the linear correlation
between the absorbance and the compound concentration and the absence of light
scattering. The solutions were optionally centrifuged at 100000 rpm for 20 min at 25 °C
in a TLA100 rotor with a Beckman Optima Max -XP ultracentrifuge.

[8] = PC190723 10 μM added to the polymer, 5 min

Molecule | Fluorescence anisotropy (r): free probe [1] | Fluorescence anisotropy (r): + FtsZ (unassbld.) [1] | Fluorescence anisotropy (r): + GMPCPP [1] | Fluorescence anisotropy (r): + MgCl2 (polymer) [1] | Fluorescence anisotropy (r): + PC190723 [1, 8] | MIC ([2]; read-out: MIC B. subtilis) [µM] | Kd [5] [µM] | minimal effective concentration [6] [µM] | solubility [7] [µM] | MIC [4] [µM] | further results
CCCC(COc1ccc(F)c(C(N)=O)c1F)Nc1ccc([N+](=O)[O-])c2nonc12 (stereo not drawn) [Compound 5, 2,6-Difluoro-3-{2-[(4-nitro-2,1,3-benzoxadiazol-7-yl)amino]pentoxy}benzamide] | 0.031 | 0.034 | 0.036 | 0.203 |  |  |  |  |  |  | Fluorescence anisotropy (r): + PC190723 ([1]; [PC190723] = 30 μM): 0.055
CCCCCC(CNc1ccc([N+](=O)[O-])c2nonc12)Oc1ccc(F)c(C(N)=O)c1F (stereo not drawn) [Compound 3, 2,6-Difluoro-3-[(1-{[(7-nitro-2,1,3-benzoxadiazol-4-yl)amino]methyl}hexyl)oxy]benzamide] | 0.049 | 0.104 | 0.115 | 0.261 | 0.135 |  |  |  |  |  | 
CCC[C@@H](COc1ccc(F)c(C(N)=O)c1F)Nc1ccc([N+](=O)[O-])c2nonc12 [(S)-5] | 0.030 | 0.042 | 0.041 | 0.096 | 0.038 |  |  |  |  |  | MIC B. subtilis [2]: 250 µM (≈ 105 µg/mL); fold reduced affinity with respect to (R)-5 [3]: 8 fold; Imax/Imin [3]: 1.7; rmax (all probe bound) [3]: 0.178; rmin (free probe) [3]: 0.025; Kd [3]: 15 ± 2 µM; MIC S. aureus Mu50 [4]: > 250 µM
NC(=O)c1c(F)ccc(OCc2ccccc2C(F)(F)F)c1F [Compound 19] |  |  |  |  |  | > 100 | 71 ± 6 | > 100 | 50 (≈ 16.6 µg/mL) | > 100 | 
NC(=O)c1c(F)ccc(OCc2ccc(C(F)(F)F)cc2)c1F [Compound 21] |  |  |  |  |  | 50 (≈ 16.6 µg/mL) | 6.7 ± 0.4 | 25 | 100 (≈ 33.1 µg/mL) | 100 (≈ 33.1 µg/mL) | 
CCCN(Cc1cccc(Cl)c1)c1cccc(C(N)=O)c1 [Compound 8] |  |  |  |  |  |  |  |  | 5 (≈ 1.51 µg/mL) |  | toxicity to the bacterial cells, in words [6]: toxic to the bacterial cells
NC(=O)c1ccc(OCc2cccc(Cl)c2)cc1 [Compound 14] |  |  |  |  |  |  |  |  |  |  | MIC [2]: > 500 µM; toxicity to the bacterial cells, in words [6]: toxic
NC(=O)c1cccc(OCCc2cccc(Cl)c2)c1 [Compound 12] |  |  |  |  |  | 100 (≈ 27.6 µg/mL) | 7.1 ± 0.5 | 50 | ≥ 100 | > 100 | 
2,6-Difluoro-3-[(1-{[(7-nitro-2,1,3-benzoxadiazol-4-yl)amino]methyl}nonyl)-oxy]benzamide [Compound 4] | 0.045 | 0.130 | 0.186 | 0.317 | 0.324 |  |  |  |  |  | 
NC(=O)c1cccc(OCc2cccc(Cl)c2)c1 [Compound 11] |  |  |  |  |  | 50 (≈ 13.1 µg/mL) | 9.3 ± 0.5 | 50 | 100 (≈ 26.2 µg/mL) | > 100 | fold lower KD and MDC than 3-aminobenzamide analogue 6 [5]: more than 10 fold
CCCC(CNc1ccc([N+](=O)[O-])c2nonc12)Oc1ccc(F)c(C(N)=O)c1F (stereo not drawn) [Compound 2, 2,6-Difluoro-3-[(1-{[(7-nitro-2,1,3-benzoxadiazol-4-yl)amino]methyl}butyl)oxy]benzamide] | 0.037 | 0.039 | 0.046 | 0.157 | 0.053 |  |  |  |  |  | 
NC(=O)c1cccc(OCCCc2cccc(Cl)c2)c1 [Compound 13] |  |  |  |  |  | 100 (≈ 29 µg/mL) | 9.5 ± 0.5 | 25 | 25 (≈ 7.24 µg/mL) | > 100 | 
CCC[C@H](CNc1ccc([N+](=O)[O-])c2nonc12)Oc1ccc(F)c(C(N)=O)c1F [(R)-2] | 0.037 | 0.046 | 0.050 | 0.081 | 0.051 |  |  |  |  |  | MIC B. subtilis [2]: > 250 µM; inhibition of B. subtilis cell division, in words [6]: inactive; Imax/Imin [3]: 1.0; rmax (all probe bound) [3]: 0.067; rmin (free probe) [3]: 0.038; MIC S. aureus Mu50 [4]: > 250 µM
CCC[C@@H](CNc1ccc([N+](=O)[O-])c2nonc12)Oc1ccc(F)c(C(N)=O)c1F [(S)-2] | 0.037 | 0.041 | 0.044 | 0.172 | 0.065 |  |  |  |  |  | MIC B. subtilis [2]: 250 µM (≈ 105 µg/mL); Imax/Imin [3]: 2.4; rmax (all probe bound) [3]: 0.258; rmin (free probe) [3]: 0.028; Kd [3]: 8 ± 1 µM; MIC S. aureus Mu50 [4]: > 250 µM
